Data reported in patent publication US20260284189A1, “TREATMENT OF NON-SMALL CELL LUNG CANCER” (ASTRAZENECA AB, priority 2023, published 2026).

Assays:
[1] = tested on: resectable non-small cell lung cancer (R-NSCLC); assay: AEGEAN phase III: pathological response (pCR, MPR) by central pathology review; assay type: in vivo, human; settings: final analysis
Source text: As used herein, the terms “pathological complete response” or “pathological CR” or “pCR” refer to the proportion of patients who have 0% residual viable tumor cells within all resected tissue (including primary lung lesion and lymph nodes) following neoadjuvant treatment as assessed by central pathology laboratory. […] Central pathology assessment of pCR will be performed according to the recommended methods and definitions described by IASLC 2020 (Travis et al. “IASLC Multidisciplinary Recommendations for Pathologic Assessment of Lung Cancer Resection Specimens After Neoadjuvant Therapy.” J Thorac Oncol. 2020 May; 15(5):709-740. doi:10.1016/j.jtho.2020.01.005). The analysis can be performed using a Cochran-Mantel-Haenszel (CMH) test, stratified by disease stage (Stage II versus Stage III) and PD-L1 expression status (<1% versus ≥1%). The effect of treatment will be estimated by the difference in proportions between treatment groups, together with their corresponding CI and p-value.
As used herein, the terms “major pathological response” and “mPR” refer to the proportion of patients with 10% or less residual viable tumor tissue in lung primary tumor after neoadjuvant treatment at the time of resection as assessed per central pathology laboratory. […]
Primary tumors and sampled lymph nodes were assessed for pathological response to neoadjuvant treatment by central pathology review using recommendations from the IASLC. […] 2020 May; 15(5):709-740. doi: 10.1016/j.jtho.2020.01.005; Hellmann et al. “Pathological response after neoadjuvant chemotherapy in resectable non-small-cell lung cancers: proposal for the use of major pathological response as a surrogate endpoint.” Lancet Oncol 2014; 15(1):e42-50; Cottrell et al. “Pathologic features of response to neoadjuvant anti-PD-1 in resected non-small-cell lung carcinoma: a proposal for quantitative immune-related pathologic response criteria (irPRC).” Ann Oncol 2018; 29(8):1853-1860). […]
For pathological endpoints, response rates were compared between treatment arms using a stratified Cochran-Mantel-Haenszel test; the treatment effect was estimated by the differences in response rates, with their corresponding 95% confidence intervals (CIs) calculated by the stratified Miettinen and Nurminen method. EFS was compared between the treatment arms using a stratified log-rank test; the treatment effect was estimated by HRs and 95% CIs calculated with stratified Cox-proportional-hazards models. […] For pCR, the differences in response rates were calculated for each subgroup, with corresponding 95% CIs estimated using an unstratified Miettinen and Nurminen method; for EFS, HRs and 95% CIs were calculated for each subgroup using a Cox-proportional-hazards model with treatment as the only covariate.

[2] = tested on: resectable non-small cell lung cancer (R-NSCLC); assay: AEGEAN phase III: objective response prior to surgery, BICR (RECIST v1.1); assay type: in vivo, human; settings: mITT N = 366
Experimental: Tumors were evaluated per RECIST v1.1 using imaging collected at the following timepoints: baseline (≤28 days before randomization); after completing neoadjuvant treatment and before surgery; 5 weeks (±2 weeks) after surgery and before starting adjuvant treatment; every 12 weeks (±1 week) until Week 48 after surgery; every 24 weeks (±2 weeks) until Week 192 (i.e., ~4 years post-surgery); and every 48 weeks (±2 weeks) thereafter until local or distant recurrence, consent withdrawal, or death.
Efficacy assessments were performed and determined by pathology review or a BICR using RECIST 1.1 assessment, as applicable, including EFS (mITT and PD-L1 TC≥1% analysis set), pCR (mITT and PD-L1 TC≥1% analysis set), mPR (mITT and PD-L1 TC≥1% analysis set), DFS (modified resected set and PD-L1 TC≥1% resected set), and OS (mITT and PD-L1 TC≥1% analysis set). The EFS event of PD that precludes surgery or PD discovered during surgery that prevents completion of surgery will be determined by the Investigator.

[3] = tested on: PD-L1-mediated suppression of human T-cell activation; settings: in vitro; cited from earlier work
xenograft model = settings: via a T-cell dependent mechanism; cited from earlier work

Q: What does the source list for “Durvalumab: antibody that selectively binds PD-L1 and blocks binding of PD-L1 to PD-1 and CD80; arm given with platinum-based chemotherapy before surgery”?
A: MPR, proportion of patients ([1]; mITT N=366, central review): 33.3%; pCR, proportion of patients ([1]; mITT N=366, central review): 17.2%; MPR difference in proportions, durvalumab arm versus placebo arm ([1]; mITT N=740): 21.0; pCR difference in proportions, durvalumab arm versus placebo arm ([1]; mITT N=740): 13.0%; Complete response: number of patients [2]: 4; Complete response: patients [2]: (1.1) %; Not evaluable (objective response): number of patients [2]: 25; Not evaluable (objective response): patients [2]: (6.8) %; Objective response rate [2]: (56.3) %; Objective response rate: number of patients [2]: 206; Partial response: number of patients [2]: 202; Partial response: patients [2]: (55.2) %; Progression: number of patients [2]: 11; Progression: patients [2]: (3.0) %; Stable disease: number of patients [2]: 124; Stable disease: patients [2]: (33.9) %; PD-L1-mediated suppression of human T-cell activation [3]: can relieve PD-L1-mediated suppression of human T-cell activation in vitro; tumor growth in a xenograft model (xenograft model): inhibits tumor growth in a xenograft model
